Assay results taken from US20150252022A1, “RETINOIC ACID RECEPTOR-RELATED ORPHAN RECEPTOR MODULATORS AND USES THEREOF” (INNOV17 LLC, priority 2014, published 2015).

Assays:
Assay type in all cases: cell-based
Details in all cases: 72 h; human CD4+ T cells under TH17-polarizing conditions, 3 days, supernatant ELISA
IL-21 = assay: Human TH17 Cytokine Inhibition as measured by ELISA (IL-21)
IL-17A = assay: Human TH17 Cytokine Inhibition as measured by ELISA (IL-17A)
In short: (§1)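 Human CD4+ T cells from healthy-donor PBMCs were activated with plate-bound anti-CD3 and soluble anti-CD28 (1 ug/ml each) and TH17-polarized with IL-6, TGF-β1, IL-23 and IL-1β for 3 days in serum-free medium, with compound at varying concentrations (0.1% DMSO). Supernatant IL-17A/IL-17F quantified by ELISA, absorbance 450 nm.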

IL-17F = assay: Human TH17 Cytokine Inhibition as measured by ELISA (IL-17F)
In short: as §1

Measured: IC50

O=C(CCc1ccc(F)cc1)N1CCC(Cn2ccc3cc(-c4cn[nH]c4)ccc32)CC1 [Example 93, 1-(4-((5-(1H-pyrazol-4-yl)-1H-indol-1-yl)methyl)piperidin-1-yl)-3-(4-fluorophenyl)propan-1-one]
< 10 µM: all assays above

Cc1[nH]ncc1-c1ccc2c(ccn2CC2CCN(C(=O)CCc3ccccc3)CC2)c1 [Example 115, 1-(4-((5-(5-methyl-1H-pyrazol-4-yl)-1H-indol-1-yl)methyl)piperidin-1-yl)-3-phenylpropan-1-one]
< 10 µM: all assays above
